The target of this assay is T1, recombinant human aromatase (CYP19) (Homo sapiens, UniProt P11511).
T1 construct: purchased GENTEST 456260; host or cells: baculovirus/insect cells
T1 sequence (P11511 1-503): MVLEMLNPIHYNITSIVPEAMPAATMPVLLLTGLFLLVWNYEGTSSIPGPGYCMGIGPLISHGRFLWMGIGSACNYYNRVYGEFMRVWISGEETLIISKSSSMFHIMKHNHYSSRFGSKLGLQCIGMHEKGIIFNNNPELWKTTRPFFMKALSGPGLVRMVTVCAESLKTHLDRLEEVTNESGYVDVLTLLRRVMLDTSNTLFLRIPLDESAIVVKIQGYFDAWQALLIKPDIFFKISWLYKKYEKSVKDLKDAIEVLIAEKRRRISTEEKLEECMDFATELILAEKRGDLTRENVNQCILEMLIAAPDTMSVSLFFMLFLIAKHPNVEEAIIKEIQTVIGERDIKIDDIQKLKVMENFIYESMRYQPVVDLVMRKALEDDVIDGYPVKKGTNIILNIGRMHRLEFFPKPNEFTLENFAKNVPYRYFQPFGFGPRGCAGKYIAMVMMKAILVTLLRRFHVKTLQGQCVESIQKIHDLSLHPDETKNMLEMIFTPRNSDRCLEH
In words: aromatase (CYP19) inhibition assay, fluorometric substrate dibenzylfluorescein (DBF). The class given is biochemical. The note with it: recombinant human aromatase (baculovirus/insect cell expressed), test compounds 2×10^−5 to 10^−9 M, 37° C. for 30 minutes. How it is done:
Compounds of the invention were evaluated for inhibiting aromatase enzyme using the following aromatase (CYP19) inhibition assay which detects aromatase inhibitors utilizing recombinant human aromatase (baculovirus/insect cell expressed) and the fluorometric substrate dibenzylfluorescein (DBF). Aromatase will metabolize DBF to fluorescein which will give the fluorescent signal. The assay is conducted in 96-well black, Falcon plate (BD Biosciences, Cat. No. 353241) in the total volume of 100 μL per well. 40 μL of the Cofactor/Dilution buffer (1) is added to the plate followed by 10 μL of serially diluted test compounds in duplicates for final concentration of 2×10^−5 to 10^−9 M, or 10 μL of phosphate buffer for positive and background control wells. After 10 minutes of preincubation at 37° C., the reaction is initiated by adding 50 μL of prewarmed Enzyme/Substrate Mix (2) to the test compound wells, and positive control wells (maximum activity of CYP19, which represents 100%). The plate is incubated at 37° C. for 30 minutes. To stop the reaction, 37.5 μL of 2 N NaOH is added to all wells. For background controls, 50 μL of Enzyme/Substrate Mix (2) are added into background control wells. The plate is left at 37° C. incubator for 2 hours to develop adequate signal to background ratio. Fluorescence per well is measured in the fluorescent plate reader. The metabolite concentration is measured using excitation wavelength of 485 nm and emission wavelength of 538 nm. Inhibition of aromatase by test compounds is expressed in percentage relative to positive controls. IC50 values for the test compounds are derived from non-liner curve fitting. • (1) Cofactor/Dilution buffer: 50 mM phosphate buffer, pH=7.4; 1× NADPH regenerating system A (20× stock, GENTEST, Cat. No. 451220); 1× NAPDH regenerating system B (100× stock, GENTEST, Cat. No. 451200) and 0.2 mg/mL control protein (Insect Cell Control Supersomes, GENTEST, Cat. No. 456200) • (2) Enzyme/Substrate Mix: 50 mM phosphate buffer, pH=7.4, 0.02 nmole/mL human aromatase protein (Human CYP19+P450 Reductase Supersomes, GENTEST, Cat. No. 456260); 0.4 μM dibenzylfluorescein (DBF, GENTEST, Cat. No. 451750, prepared at 2 mM concentration in acetonitrile); 0.5 mg/mL control protein (Insect Cell Control Supersomes, GENTEST, Cat. No. 456200).
On to `COc1ccc(F)cc1C(C)(C)CC(O)(Cc1cc2ccncc2[nH]1)C(C)C` (stereo not shown) [5-(5-Fluoro-2-methoxyphenyl)-2,5-dimethyl-3-(1H-pyrrolo[2,3-c]pyridin-2-ylmethyl)hexan-3-ol], for which the aromatase inhibition result was “showed aromatase inhibition”. For `COc1ccc(F)cc1C(C)(C)CC(O)(Cc1cc2cnccc2[nH]1)C(C)C` (stereo not shown) [5-(5-Fluoro-2-methoxyphenyl)-2,5-dimethyl-3-(1H-pyrrolo[3,2-c]pyridin-2-ylmethyl)hexan-3-ol] the value was “showed aromatase inhibition”. For `Cc1ccc(F)cc1C(C)(C)CC(O)(Cc1cc2ccncc2[nH]1)C(C)C` (stereo not shown) [5-(5-Fluoro-2-methylphenyl)-2,5-dimethyl-3-(1H-pyrrolo[2,3-c]pyridin-2-ylmethyl)hexan-3-ol] the value was “showed aromatase inhibition”; for `CC(C)(CC(O)(Cc1cc2cnccc2[nH]1)C(F)(F)F)c1ccc(F)cc1O` (stereo not shown) [5-Fluoro-2-[4,4,4-trifluoro-3-hydroxy-1,1-dimethyl-3-(1H-pyrrolo[3,2-c]pyridin-2-ylmethyl)butyl]phenol], “showed aromatase inhibition”.

The values are drawn from patent publication US20060030608A1, “Anti aromatase compounds pharmaceutical compositions and uses thereof” (Boehringer Ingelheim Pharmaceuticals, Inc., priority 2004, published 2006).
